Structures can show the parent of a compound that is named as a salt.
What was measured:
5-HT3 receptor [1] = biological target: T1, 5-HT3 receptor (Rattus norvegicus, UniProt P35563); assay: 5-HT3 receptor-binding assay using [3H]GR65630 (rat cerebral cortex synaptic membrane); set-up: A crude specimen of synaptic membrane was prepared from the cerebral cortex of rat; from tissue; host or cells: rat cerebral cortex, crude synaptic membrane; details: [3H]GR65630 0.2-0.3 nM, 50 mM HEPES with Triton X-100, 30 minutes at 23° C., nonspecific: 100 μM metoclopramide
T1 sequence (P35563 24-483): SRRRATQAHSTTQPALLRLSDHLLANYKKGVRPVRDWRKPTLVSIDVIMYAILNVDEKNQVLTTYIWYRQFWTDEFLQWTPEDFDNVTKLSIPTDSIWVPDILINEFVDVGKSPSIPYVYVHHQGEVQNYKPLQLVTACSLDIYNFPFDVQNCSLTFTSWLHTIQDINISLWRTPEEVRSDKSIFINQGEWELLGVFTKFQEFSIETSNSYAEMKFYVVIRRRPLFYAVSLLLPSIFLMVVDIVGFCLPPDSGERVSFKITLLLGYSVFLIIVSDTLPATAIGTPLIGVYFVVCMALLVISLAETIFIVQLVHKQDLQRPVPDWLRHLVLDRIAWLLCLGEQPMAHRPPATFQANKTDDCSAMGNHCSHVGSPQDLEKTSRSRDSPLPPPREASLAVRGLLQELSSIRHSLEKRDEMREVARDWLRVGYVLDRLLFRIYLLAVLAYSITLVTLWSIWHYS
Text: (§1) The compound of the present invention has an antagonistic action to 5-HT receptor, in particular, to 5-HT3 receptor. Affinity of the compound of the present invention to 5-HT3 receptor is shown by a receptor-binding assay [refer to Gavin J. Kilpatrick et al, Eur. J. Pharmacol., 159, 157 (1989)] using [^3 H]GR65630 for a tracer legend. Moreover, the antagonistic action to 5-HT3 receptor is shown through inhibition of von Bezold Jarisch reflex caused by intravenously administering 5-HT to rat.
The specific 5-HT3 receptor-binding assay was performed according to the method by G. J. Kilpatrick et al. using [^3 H] GR 65630 as a tracer ligand.
A crude specimen of synaptic membrane was prepared from the cerebral cortex of rat and used for experiment by suspending it into 50 mM IIEPES buffer (pl 7.4) added with Triton X-100.
Next, testing compounds of several kinds of concentration and tritium-labelled GR 65630 (final concentration 0.2-0.3 nM) were added to the suspension of membrane and allowed to react for 30 minutes at 23° C. After the reaction, the reaction mixture was filtered under suction and the filter was washed with 50 mM HEPES buffer. Then, the radioactivity left behind on the filter was determined with a liquid scintillation counter.
The nonspecific binding was determined in the presence of 100 μM metoclopramide.
Then, 50% inhibitory concentration (IC50) of the compounds of Examples 10 through 12 was determined graphically (Table 1).

5-HT3 receptor [2] = biological target: T1, 5-HT3 receptor; assay: Antagonistic action on von Bezold Jarisch reflex; format: in vivo; set-up: Under the anesthetization of rat with urethane/chloralose; from tissue; host or cells: whole anaesthetized rat (in vivo); receptor endogenous, by own knowledge on vagal afferents; details: urethane/chloralose-anesthetized rat, 5-HT 1 mg/kg intravenous; dose of test compound not given
Text: as §1
The antagonistic action of testing compounds to 5-HT3 was assayed according to the method described in Naunyn-Schmiedeberg's Arch. Pharmacol., vol. 326, 36 (1984).
Under the anesthetization of rat with urethane/chloralose, the blood pressure was monitored with hemodynamometer frown carotid arteries and the heart rate was monitored from electrocardiogram.

SMILES: CCN(C)[C@@H]1CN(C(=O)c2nn(C)c3ccccc23)C[C@@H]1C (relative stereo) [Example 10, Cis-3-(N-ethyl-N-methyl)amino-4-methyl-1-(1-methylind-azol-3-ylcarbonyl)pyrrolidine hydrochloride]
- IC50 (5-HT3 receptor [1]): 1 nM
- inhibition of reflex bradycardia caused by intravenous 5-HT (von Bezold Jarisch reflex) (5-HT3 receptor [2]): inhibited the reflex bradycardia

SMILES: CCN(C)[C@@H]1CN(C(=O)c2cn(C)c3ccccc23)C[C@@H]1C (relative stereo) [Example 12, Cis-3-(N-ethyl-N-methyl)amino-4-methyl-1-(1-methylindol-3-ylcarbonyl)pyrrolidine hydrochloride]
- IC50 (5-HT3 receptor [1]): 2 nM
- inhibition of reflex bradycardia caused by intravenous 5-HT (von Bezold Jarisch reflex) (5-HT3 receptor [2]): inhibited the reflex bradycardia

SMILES: CN(C)C1CCN(C(=O)c2nn(C)c3ccccc23)C1 (centres unmarked) [Example 11, 3-Dimethylamino-(1-methylindazol-3-ylcarbonyl)pyrrolidine hydrochloride]
- IC50 (5-HT3 receptor [1]): 3 nM

From patent US5449787A, “N,N'-disubstituted amide derivatives” (Kyorin Pharmaceutical Co., Ltd., priority 1992, dated 1995)
